Experimental data published in patent US20240041028A1, “DELIVERY SYSTEM FOR PLANT PROTECTION” (Omya International AG, priority 2021, published 2024).

Test system: Botrytis cinerea strain SAS 56
Experiment: Efficacy of pyrimethanil tablets against Botrytis on tomato fruits
Format: in vivo
Details: 6 days after inoculation (6 dpi); active applied one day prior to inoculation, 80 μl per hole
Description: • Tablets loaded with pyrimethanil (sample V3.3, 2.1 wt.-%, prepared according to Example 4) • Hydromagnesite tablets unloaded • Fungicide Espiro SC, commercially available from Omya Agro • Pure pyrimethanil powder, commercially available from Pluorochem Ltd • Five plastic trays with lids • Screwdriver • Eppendorf Pipette […] • Tomato fruits (calibration 47-57 mm) • Inoculum: Spore suspension of Botrytis cinerea strain SAS 56 (3×10^5 spores/ml), commercially available from DSMZ collection.
• Treatment 1: Untreated check. • Treatment 2: Tablets loaded with pyrimethanil (sample V3.3, 2.1 wt.-%, prepared according to Example 4) (0.03 gr active/tablet). • Treatment 3: Unloaded hydromagnesite tablet. • Treatment 4: Fungicide Espiro (appl. rate 0.125% (v/v based on the total amount of prepared treatment solution (solution amount: 50 ml, see below), resulting in pyrimethanil active 400 gr/1). • Treatment 5: Pure pyrimethanil active diluted in ethanol of 99% purity.
• Treatment 1: Only inoculum applied • Treatment 2: In 50 ml of water 1 tablet was dissolved. […]
Three days after the inoculation the first symptoms in the untreated check were detected. […]

Cc1cc(C)nc(Nc2ccccc2)n1 [Pyrimethanil]
Botrytis spore germination / mycelium growth on tomato fruits: no mycelium was produced
